Assay results: ChEMBL document CHEMBL3352111, “Cytotoxic activity of butane type of 1,7-seco-2,7'-cyclolignanes and apoptosis induction by Caspase 9 and 3” (Bioorg Med Chem Lett, 2014)
The source made the active and inactive calls. The rule behind the calls is not given here.

Key:
HeLa [1] = experiment: Cytotoxicity against human HeLa cells after 48 hrs by WST8 assay; format: functional, cell-based
[2] = Cytotoxicity against human HL60 cells after 48 hrs by WST8 assay; format: functional, cell-based; settings: HL-60, 48 h
HL-60 [3] = experiment: Induction of apoptosis in human HL60 cells assessed as increase in DNA fragmentation at 25 uM after 4 hrs by ethidium bromide staining and gel electrophoresis based DNA ladder analysis; format: functional, cell-based
HL-60 [4] = experiment: Induction of apoptosis in human HL60 cells assessed as increase in caspase-3 level at 8 uM after 24 hrs by Western blotting method; format: functional, cell-based
HL-60 [5] = experiment: Induction of apoptosis in human HL60 cells assessed as increase in caspase-9 level at 8 uM after 12 hrs by Western blotting method; format: functional, cell-based
HL-60 [6] = experiment: Induction of apoptosis in human HL60 cells assessed as reduction in pro-caspase-9 level at 8 uM after 24 hrs by Western blotting method; format: functional, cell-based
HL-60 [7] = experiment: Induction of apoptosis in human HL60 cells assessed as early apoptosis level at 8 uM after 24 hrs by Annexin V-PE and 7-AAD staining based flow cytometry (reference value: 3.3%); format: functional
HL-60 [8] = experiment: Induction of apoptosis in human HL60 cells assessed as late apoptosis level at 8 uM after 24 hrs by Annexin V-PE and 7-AAD staining based flow cytometry (reference value: 3.2%); format: functional
HeLa [9] = experiment: Cytotoxicity against human HeLa cells assessed as inhibition of cell growth at 100 uM after 48 hrs by WST8 assay; format: functional; settings: read-out: GI
[10] = Cytotoxicity against human HL60 cells assessed as inhibition of cell growth at 100 uM after 48 hrs by WST8 assay; format: functional; settings: HL-60, 48 h, read-out: GI
HL-60 [11] = experiment: Induction of apoptosis in human HL60 cells assessed as late apoptosis level at 0.2 uM after 24 hrs by Annexin V-PE and 7-AAD staining based flow cytometry (reference value: 3.3%); format: functional

**Q.** Which IC50 (HeLa [1]) does the source give for `COc1cc(C(c2ccc(O)c(OC)c2)[C@H](CF)C(C)C)ccc1O` here?
**A.** Its IC50 is 19 µM.

**Q.** What about the IC50 [2] of the same compound?
**A.** Its IC50 is 19 µM.

**Q.** For `CCCCCCCC[C@H](C(C)C)C(c1ccc(O)c(OC)c1)c1ccc(O)c(OC)c1`, which IC50 (HeLa [1]) is on record?
**A.** The IC50 was 3.1 µM.

**Q.** And the Activity (HL-60 [3])?
**A.** The Activity was “Active”.

**Q.** What about the Activity (HL-60 [4]) of the same compound?
**A.** The Activity was “Active”.

**Q.** What about the Activity (HL-60 [5]) of the same compound?
**A.** The Activity was “Active”.

**Q.** And the Activity (HL-60 [6])?
**A.** The Activity was “Active”.

**Q.** What about the IC50 [2] of the same compound?
**A.** Its IC50 is 3.7 µM.

**Q.** And the Activity (HL-60 [7])?
**A.** The Activity was 13.5%.

**Q.** And the Activity (HL-60 [8])?
**A.** The Activity was 33.1%.

**Q.** Which results are given for `COC[C@@H](C)[C@@H](C)C(c1ccc(O)c(OC)c1)c1ccc(O)c(OC)c1`?
**A.** IC50 (HeLa [1]): > 100 µM; inhibition of growth at 100 µM (HeLa [9]): 34%; IC50 [2]: 85 µM

**Q.** For `CC[C@H](C(C)C)C(c1ccc(O)c(OC)c1)c1ccc(O)c(OC)c1`, which IC50 (HeLa [1]) is on record?
**A.** The IC50 was 9.7 µM.

**Q.** What about the IC50 [2] of the same compound?
**A.** Its IC50 is 16 µM.

**Q.** For `COc1cc(C(c2ccc(O)c(OC)c2)[C@@H](CO)C(C)C)ccc1O`, which IC50 (HeLa [1]) is on record?
**A.** The IC50 was greater than 100 µM.

**Q.** What about the inhibition of growth at 100 µM (HeLa [9]) of the same compound?
**A.** The inhibition of growth at 100 µM was 2%.

**Q.** What about the inhibition of growth at 100 µM [10] of the same compound?
**A.** Its inhibition of growth at 100 µM is 18%.

**Q.** What about the IC50 [2] of the same compound?
**A.** The IC50 was greater than 100 µM.

**Q.** With `CCCCC[C@H](C(C)C)C(c1ccc(O)c(OC)c1)c1ccc(O)c(OC)c1` as the compound, how does the IC50 (HeLa [1]) read?
**A.** The IC50 was 9.2 µM.

**Q.** What about the IC50 [2] of the same compound?
**A.** Its IC50 is 9.6 µM.

**Q.** For `COC[C@@H](C(C)C)C(c1ccc(O)c(OC)c1)c1ccc(O)c(OC)c1`, which IC50 (HeLa [1]) is on record?
**A.** The IC50 was 69 µM.

**Q.** And the IC50 [2]?
**A.** Its IC50 is 54 µM.

**Q.** Which Activity (HL-60 [11]) does the source give for `CN[C@@H]1C[C@H]2O[C@@](C)([C@@H]1OC)n1c3ccccc3c3c4c(c5c6ccccc6n2c5c31)C(=O)NC4` [STAUROSPORINE] here?
**A.** The Activity was 17.4%.

**Q.** What does the source list for `COc1cc(C(c2ccc(O)c(OC)c2)[C@H](CC(C)C)C(C)C)ccc1O`?
**A.** IC50 (HeLa [1]): 8.2 µM; IC50 [2]: 9.6 µM

**Q.** For `COc1ccc(C(c2ccc(OC)c(OC)c2)[C@H](C)[C@H](C)CO)cc1OC`, which IC50 (HeLa [1]) is on record?
**A.** The IC50 was greater than 100 µM.

**Q.** What about the inhibition of growth at 100 µM (HeLa [9]) of the same compound?
**A.** The inhibition of growth at 100 µM was 13%.

**Q.** And the inhibition of growth at 100 µM [10]?
**A.** Its inhibition of growth at 100 µM is 28%.

**Q.** What about the IC50 [2] of the same compound?
**A.** The IC50 was greater than 100 µM.

**Q.** With `COC[C@H](C(C)C)C(c1ccc(O)c(OC)c1)c1ccc(O)c(OC)c1` as the compound, how does the IC50 (HeLa [1]) read?
**A.** The IC50 was 76 µM.

**Q.** And the IC50 [2]?
**A.** Its IC50 is 72 µM.

**Q.** For `COc1cc(C(c2ccc(O)c(OC)c2)[C@H](C)C(C)C)ccc1O`, which IC50 (HeLa [1]) is on record?
**A.** The IC50 was 16 µM.

**Q.** And the IC50 [2]?
**A.** Its IC50 is 17 µM.

**Q.** With `COc1cc(C(c2ccc(O)c(OC)c2)[C@@H](C)[C@H](C)CO)ccc1O` as the compound, how does the IC50 (HeLa [1]) read?
**A.** Its IC50 is greater than 100 µM.

**Q.** And the inhibition of growth at 100 µM (HeLa [9])?
**A.** The inhibition of growth at 100 µM was 7%.

**Q.** What about the inhibition of growth at 100 µM [10] of the same compound?
**A.** The inhibition of growth at 100 µM was 0%.

**Q.** And the IC50 [2]?
**A.** The IC50 was greater than 100 µM.

**Q.** For `COc1cc(C(c2ccc(O)c(OC)c2)[C@H](C)[C@@H](C)CF)ccc1O`, which IC50 (HeLa [1]) is on record?
**A.** Its IC50 is 34 µM.

**Q.** What about the IC50 [2] of the same compound?
**A.** Its IC50 is 45 µM.

**Q.** With `COc1cc(C(c2ccc(O)c(OC)c2)[C@@H](C)[C@H](C)CF)ccc1O` as the compound, how does the IC50 (HeLa [1]) read?
**A.** Its IC50 is 37 µM.

**Q.** What about the IC50 [2] of the same compound?
**A.** Its IC50 is 32 µM.

**Q.** What does the source list for `COc1cc(C(c2ccc(O)c(OC)c2)[C@@H](C)C(C)C)ccc1O`?
**A.** IC50 (HeLa [1]): 19 µM; IC50 [2]: 20 µM

**Q.** Which IC50 (HeLa [1]) does the source give for `COc1cc(C(c2ccc(O)c(OC)c2)[C@H](C)[C@H](C)CO)ccc1O` here?
**A.** The IC50 was greater than 100 µM.

**Q.** And the inhibition of growth at 100 µM (HeLa [9])?
**A.** The inhibition of growth at 100 µM was 0%.

**Q.** What about the inhibition of growth at 100 µM [10] of the same compound?
**A.** The inhibition of growth at 100 µM was 23%.

**Q.** And the IC50 [2]?
**A.** Its IC50 is greater than 100 µM.

**Q.** For `COc1cc(C(c2ccc(O)c(OC)c2)[C@H](CO)C(C)C)ccc1O`, which IC50 (HeLa [1]) is on record?
**A.** The IC50 was greater than 100 µM.

**Q.** And the inhibition of growth at 100 µM (HeLa [9])?
**A.** Its inhibition of growth at 100 µM is 3%.

**Q.** And the inhibition of growth at 100 µM [10]?
**A.** Its inhibition of growth at 100 µM is 10%.

**Q.** And the IC50 [2]?
**A.** The IC50 was greater than 100 µM.

**Q.** What does the source list for `COC[C@@H](C)[C@H](C)C(c1ccc(O)c(OC)c1)c1ccc(O)c(OC)c1`?
**A.** IC50 (HeLa [1]): 58 µM; IC50 [2]: 73 µM

**Q.** For `COc1ccc(C(c2ccc(OC)c(OC)c2)[C@@H](C)[C@@H](C)CO)cc1OC`, which IC50 (HeLa [1]) is on record?
**A.** Its IC50 is greater than 100 µM.

**Q.** And the inhibition of growth at 100 µM (HeLa [9])?
**A.** The inhibition of growth at 100 µM was 55%.

**Q.** What about the inhibition of growth at 100 µM [10] of the same compound?
**A.** The inhibition of growth at 100 µM was 42%.

**Q.** And the IC50 [2]?
**A.** Its IC50 is greater than 100 µM.

**Q.** For `COc1cc(C(c2ccc(O)c(OC)c2)[C@@H](CF)C(C)C)ccc1O`, which IC50 (HeLa [1]) is on record?
**A.** Its IC50 is 41 µM.

**Q.** And the IC50 [2]?
**A.** The IC50 was 39 µM.

**Q.** Which IC50 (HeLa [1]) does the source give for `COc1cc(C(c2ccc(O)c(OC)c2)[C@@H](C)[C@@H](C)CF)ccc1O` here?
**A.** The IC50 was 42 µM.

**Q.** What about the IC50 [2] of the same compound?
**A.** The IC50 was 38 µM.

**Q.** With `COc1cc(C(c2ccc(O)c(OC)c2)[C@@H](C)[C@@H](C)CO)ccc1O` as the compound, how does the IC50 (HeLa [1]) read?
**A.** The IC50 was greater than 100 µM.

**Q.** What about the inhibition of growth at 100 µM (HeLa [9]) of the same compound?
**A.** The inhibition of growth at 100 µM was 8%.

**Q.** And the inhibition of growth at 100 µM [10]?
**A.** Its inhibition of growth at 100 µM is 3%.

**Q.** What about the IC50 [2] of the same compound?
**A.** The IC50 was greater than 100 µM.

**Q.** With `COC[C@H](C)[C@@H](C)C(c1ccc(O)c(OC)c1)c1ccc(O)c(OC)c1` as the compound, how does the IC50 (HeLa [1]) read?
**A.** Its IC50 is 77 µM.

**Q.** What about the IC50 [2] of the same compound?
**A.** Its IC50 is 68 µM.

**Q.** What does the source list for `COc1cc(C(c2ccc(O)c(OC)c2)[C@H](C)[C@@H](C)CO)ccc1O`?
**A.** IC50 (HeLa [1]): > 100 µM; inhibition of growth at 100 µM (HeLa [9]): 7%; inhibition of growth at 100 µM [10]: 7%; IC50 [2]: > 100 µM

**Q.** For `COc1cc(C(c2ccc(O)c(OC)c2)[C@H](C)[C@H](C)CF)ccc1O`, which IC50 (HeLa [1]) is on record?
**A.** The IC50 was 75 µM.

**Q.** And the IC50 [2]?
**A.** Its IC50 is 56 µM.

**Q.** What does the source list for `COc1ccc(C(c2ccc(OC)c(OC)c2)[C@H](C)[C@@H](C)CO)cc1OC`?
**A.** IC50 (HeLa [1]): 67 µM; IC50 [2]: 47 µM

**Q.** For `COc1ccc(C(c2ccc(OC)c(OC)c2)[C@@H](C)[C@H](C)CO)cc1OC`, which IC50 (HeLa [1]) is on record?
**A.** Its IC50 is greater than 100 µM.

**Q.** What about the inhibition of growth at 100 µM (HeLa [9]) of the same compound?
**A.** The inhibition of growth at 100 µM was 0%.

**Q.** And the inhibition of growth at 100 µM [10]?
**A.** The inhibition of growth at 100 µM was 0%.

**Q.** And the IC50 [2]?
**A.** Its IC50 is greater than 100 µM.

**Q.** What does the source list for `COC[C@H](C)[C@H](C)C(c1ccc(O)c(OC)c1)c1ccc(O)c(OC)c1`?
**A.** IC50 (HeLa [1]): 72 µM; IC50 [2]: 82 µM
